Reference: patent US20250236608A1, “EGFR INHIBITORS” (Blueprint Medicines Corporation, priority 2022, published 2025)

Key:
EGFR L858R = EGFR L858R (Homo sapiens (Human), UniProt P00533, L858R); assay: Biochemical EGFR inhibition assay, EGFR L858R; conditions: Caliper mobility shift; 1.0 mM ATP or ATP Km; read-out: Enz EGFR_L858R IC50
EGFR (d746-750) = EGFR (d746-750) (Homo sapiens (Human), UniProt P00533, DEL746-750); assay: Biochemical EGFR inhibition assay, EGFR (d746-750); conditions: Caliper mobility shift; 1.0 mM ATP or ATP Km; read-out: Enz EGFR_Exon19-del746-750 IC50
Chain of EGFR (d746-750) (P00533 other isoform, or with tags, fused parts or gaps del 1-694/del 746-750 limits assumed): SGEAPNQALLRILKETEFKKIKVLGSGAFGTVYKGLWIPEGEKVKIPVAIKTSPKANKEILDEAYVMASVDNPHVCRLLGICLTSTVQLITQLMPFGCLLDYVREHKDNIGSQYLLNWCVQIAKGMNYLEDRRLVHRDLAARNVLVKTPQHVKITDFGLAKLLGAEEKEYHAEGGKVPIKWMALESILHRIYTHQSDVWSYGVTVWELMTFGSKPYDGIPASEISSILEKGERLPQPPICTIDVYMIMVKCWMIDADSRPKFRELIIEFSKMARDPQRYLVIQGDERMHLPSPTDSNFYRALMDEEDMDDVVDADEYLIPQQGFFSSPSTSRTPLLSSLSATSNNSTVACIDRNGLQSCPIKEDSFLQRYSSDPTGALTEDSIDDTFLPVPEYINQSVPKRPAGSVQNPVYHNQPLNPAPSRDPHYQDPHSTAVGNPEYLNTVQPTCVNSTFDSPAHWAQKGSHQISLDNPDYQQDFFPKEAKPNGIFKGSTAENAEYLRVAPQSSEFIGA

[1] = target: pEGFR (Tyr1068) in PC-9 cells (Ex19Del) (Homo sapiens (Human), UniProt P00533, DEL746-750); assay: PC-9 pEGFR AlphaLISA assay; type: cell-based; conditions: 4 hours incubation, p-EGFR (Tyr1068) AlphaLISA, read-out: Ext pEGFR_PC-9 Ex19Del IC50
Chain of pEGFR (Tyr1068) in PC-9 cells (Ex19Del) (P00533 other isoform, or with tags, fused parts or gaps del 746-750): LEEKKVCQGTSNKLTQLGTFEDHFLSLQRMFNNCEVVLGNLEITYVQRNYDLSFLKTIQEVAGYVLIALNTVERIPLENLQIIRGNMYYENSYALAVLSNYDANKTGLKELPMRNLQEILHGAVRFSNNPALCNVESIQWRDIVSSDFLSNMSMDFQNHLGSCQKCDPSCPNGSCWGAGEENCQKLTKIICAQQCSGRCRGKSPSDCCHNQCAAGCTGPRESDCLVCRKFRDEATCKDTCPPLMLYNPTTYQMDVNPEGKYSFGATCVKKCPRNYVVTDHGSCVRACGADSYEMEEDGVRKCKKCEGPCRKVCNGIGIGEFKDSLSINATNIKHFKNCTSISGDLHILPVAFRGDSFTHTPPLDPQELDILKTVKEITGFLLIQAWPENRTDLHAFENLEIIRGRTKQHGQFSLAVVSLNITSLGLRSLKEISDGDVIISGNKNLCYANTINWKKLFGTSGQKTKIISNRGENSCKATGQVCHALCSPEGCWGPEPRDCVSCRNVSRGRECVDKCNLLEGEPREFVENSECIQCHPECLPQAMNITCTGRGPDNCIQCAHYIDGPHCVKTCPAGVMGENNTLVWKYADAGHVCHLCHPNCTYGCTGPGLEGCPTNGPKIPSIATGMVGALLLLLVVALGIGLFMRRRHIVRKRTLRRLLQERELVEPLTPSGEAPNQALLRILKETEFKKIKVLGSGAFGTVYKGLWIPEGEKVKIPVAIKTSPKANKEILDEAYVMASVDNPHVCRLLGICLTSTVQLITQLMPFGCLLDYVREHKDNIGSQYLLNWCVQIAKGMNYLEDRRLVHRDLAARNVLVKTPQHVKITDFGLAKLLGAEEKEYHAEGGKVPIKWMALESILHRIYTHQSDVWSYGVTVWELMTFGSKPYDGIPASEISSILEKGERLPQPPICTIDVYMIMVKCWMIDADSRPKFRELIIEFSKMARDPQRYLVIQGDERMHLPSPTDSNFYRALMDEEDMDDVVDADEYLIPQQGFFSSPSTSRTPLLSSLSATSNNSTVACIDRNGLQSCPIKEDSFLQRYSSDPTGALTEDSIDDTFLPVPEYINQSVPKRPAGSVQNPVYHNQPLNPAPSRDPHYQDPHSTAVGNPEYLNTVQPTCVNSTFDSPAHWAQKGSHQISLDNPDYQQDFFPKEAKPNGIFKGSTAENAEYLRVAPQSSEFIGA
In short: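 First, cells settled overnight in 10% FBS medium. Second, a 10-point, 4-fold series of test agents was applied for 4 h at 37° C. Third, lysates were probed with AlphaLISA acceptor and donor beads, incubated overnight in the dark. Last, IC50 was taken from the dose-response.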

Chain of EGFR L858R (P00533 25-1210 L858R): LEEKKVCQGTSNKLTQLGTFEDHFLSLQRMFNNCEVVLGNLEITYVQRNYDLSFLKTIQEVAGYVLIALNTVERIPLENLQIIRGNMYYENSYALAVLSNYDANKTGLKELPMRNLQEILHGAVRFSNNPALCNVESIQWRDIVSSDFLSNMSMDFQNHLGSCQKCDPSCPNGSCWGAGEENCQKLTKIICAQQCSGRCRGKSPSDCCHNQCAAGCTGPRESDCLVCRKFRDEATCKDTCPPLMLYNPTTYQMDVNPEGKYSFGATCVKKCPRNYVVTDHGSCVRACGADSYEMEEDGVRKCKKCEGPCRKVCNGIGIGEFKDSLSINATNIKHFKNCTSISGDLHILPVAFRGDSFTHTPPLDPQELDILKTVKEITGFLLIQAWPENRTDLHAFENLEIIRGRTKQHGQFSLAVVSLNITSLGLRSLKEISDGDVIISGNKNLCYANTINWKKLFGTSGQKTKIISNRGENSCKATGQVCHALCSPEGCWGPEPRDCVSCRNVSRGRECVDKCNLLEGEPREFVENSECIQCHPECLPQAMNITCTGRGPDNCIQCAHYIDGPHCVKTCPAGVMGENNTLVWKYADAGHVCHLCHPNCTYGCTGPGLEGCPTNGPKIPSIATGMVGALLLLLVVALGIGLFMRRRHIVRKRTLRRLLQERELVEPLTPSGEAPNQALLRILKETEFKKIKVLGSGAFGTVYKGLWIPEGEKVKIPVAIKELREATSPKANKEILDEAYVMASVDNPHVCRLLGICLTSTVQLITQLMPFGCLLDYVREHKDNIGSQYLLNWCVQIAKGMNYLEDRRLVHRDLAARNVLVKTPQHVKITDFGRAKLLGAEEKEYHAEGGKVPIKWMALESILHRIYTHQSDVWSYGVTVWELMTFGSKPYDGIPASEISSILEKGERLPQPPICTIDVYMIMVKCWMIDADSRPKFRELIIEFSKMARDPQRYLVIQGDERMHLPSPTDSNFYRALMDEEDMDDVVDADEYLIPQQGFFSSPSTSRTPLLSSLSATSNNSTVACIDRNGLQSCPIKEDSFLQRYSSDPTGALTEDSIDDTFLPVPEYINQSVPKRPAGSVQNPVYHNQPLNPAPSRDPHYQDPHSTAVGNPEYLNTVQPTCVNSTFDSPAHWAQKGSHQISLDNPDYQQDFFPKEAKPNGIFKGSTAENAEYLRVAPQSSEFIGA

SMILES	IC50 (EGFR L858R)	IC50 (EGFR (d746-750))	IC50 [1]
CCOc1cc2ncnc(-c3cn(C)nc3-c3ccc(F)cc3)c2nc1NC(=O)[C@@]12COC[C@@H]1C2 (single isomer, unassigned) [Example 385, (1R,5R)—N-(7-ethoxy-4-(3-(4-fluorophenyl)-1-methyl-1H-pyrazol-4-yl)pyrido[3,2-d]pyrimidin-6-yl)-3-oxabicyclo[3.1.0]hexane-1-carboxamide or (1S,5S)—N-(7-ethoxy-4-(3-(4-fluorophenyl)-1-methyl-1H-pyrazol-4-yl)pyrido[3,2-d]pyrimidin-6-yl)-3-oxabicyclo[3.1.0]hexane-1-carboxamide]	1.7 nM	0.4 nM	0.7 nM
Cn1cc(-c2ncnc3cc(OC4CC4)c(NC(=O)C4(C(F)(F)F)CC4)nc23)c(-c2ccccc2)n1 [Example 463, N-[7-cyclopropoxy-4-(1-methyl-3-phenyl-1H-pyrazol-4-yl)pyrido[3,2-d]pyrimidin-6-yl]-1-(trifluoromethyl)cyclopropane-1-carboxamide]	3.9 nM	0.8 nM	1.7 nM
COc1cc2ncnc(-c3cn(C)nc3-c3ccccc3)c2cc1NC(=O)[C@@H]1C[C@@H]1C [Example 283, (1R,2S)—N-(7-methoxy-4-(1-methyl-3-phenyl-1H-pyrazol-4-yl)quinazolin-6-yl)-2-methylcyclopropane-1-carboxamide]	1.7 nM	0.9 nM	1.1 nM
COc1cc2ncnc(-c3cn(C)nc3-c3ccccc3)c2cc1NC(=O)c1sc(C2CC2)nc1C [Example 354, 2-cyclopropyl-N-(7-methoxy-4-(1-methyl-3-phenyl-1H-pyrazol-4-yl)quinazolin-6-yl)-4-methylthiazole-5-carboxamide]	2.6 nM	1.2 nM	0.8 nM
COc1cc2ncnc(-c3cn(C)nc3-c3ccccc3F)c2cc1OC(=O)N1CCN(C)C[C@@H]1C [Example 66, 4-(3-(2-fluorophenyl)-1-methyl-1H-pyrazol-4-yl)-7-methoxyquinazolin-6-yl (S)-2,4-dimethylpiperazine-1-carboxylate]	2.9 nM	2.2 nM	5.2 nM
COc1cc2ncnc(-c3cn(C)nc3-c3ccc(F)cc3)c2nc1NC(=O)[C@@]12C[C@@H]1CN(C)C2 (single isomer, unassigned) [Example 410, (1S,5S)—N-(4-(3-(4-fluorophenyl)-1-methyl-1H-pyrazol-4-yl)-7-methoxypyrido[3,2-d]pyrimidin-6-yl)-3-methyl-3-azabicyclo[3.1.0]hexane-1-carboxamide or (1R,5R)—N-(4-(3-(4-fluorophenyl)-1-methyl-1H-pyrazol-4-yl)-7-methoxypyrido[3,2-d]pyrimidin-6-yl)-3-methyl-3-azabicyclo[3.1.0]hexane-1-carboxamide]	2.9 nM	1.1 nM	2.5 nM
COc1cc2c(-c3cn(C)nc3-c3ccccc3)ncnc2cc1N1CC2(CN(C(C)=O)C2)C1 [Example 447, 1-(6-(6-methoxy-4-(1-methyl-3-phenyl-1H-pyrazol-4-yl)quinazolin-7-yl)-2,6-diazaspiro[3.3]heptan-2-yl)ethan-1-one]	1.6 nM	0.9 nM	1.6 nM
COc1cc2ncnc(-c3cn(C)nc3-c3ccccc3)c2cc1OC1COCCOC1 [Example 21, 6-((1,4-dioxepan-6-yl)oxy)-7-methoxy-4-(1-methyl-3-phenyl-1H-pyrazol-4-yl)quinazoline]	7.4 nM	3 nM	10.5 nM
COc1cc2ncnc(-c3cn(C)nc3-c3ccccc3)c2cc1NC(=O)C12COCC1C2 (stereo not drawn) [Example 278, N-(7-methoxy-4-(1-methyl-3-phenyl-1H-pyrazol-4-yl)quinazolin-6-yl)-3-oxabicyclo[3.1.0]hexane-1-carboxamide]	4.5 nM	2.3 nM	7.8 nM
CCOc1cc2ncnc(-c3cn(C)nc3-c3ccccc3F)c2nc1NC(=O)[C@@]12C[C@@H]1CN(C)C2 (single isomer, unassigned) [Example 400, (1S,5S)—N-(7-ethoxy-4-(3-(2-fluorophenyl)-1-methyl-1H-pyrazol-4-yl)pyrido[3,2-d]pyrimidin-6-yl)-3-methyl-3-azabicyclo[3.1.0]hexane-1-carboxamide or (1R,5R)—N-(7-ethoxy-4-(3-(2-fluorophenyl)-1-methyl-1H-pyrazol-4-yl)pyrido[3,2-d]pyrimidin-6-yl)-3-methyl-3-azabicyclo[3.1.0]hexane-1-carboxamide]	141 nM	1.6 nM	2 nM
COc1cc2ncnc(-c3cn(C)nc3-c3ccccc3)c2nc1O[C@@H](C)c1cnnn1C [Example 42, (S)-7-methoxy-6-(1-(1-methyl-1H-1,2,3-triazol-5-yl)ethoxy)-4-(1-methyl-3-phenyl-1H-pyrazol-4-yl)pyrido[3,2-d]pyrimidine]	9.6 nM	2.9 nM	43.9 nM
CCn1cc(-c2ncnc3cc(OC)c(NC(=O)[C@@]45COC[C@@H]4C5)cc23)c(-c2ccc(F)cc2)n1 [Example 334, (1R,5R)—N-(4-(1-ethyl-3-(4-fluorophenyl)-1H-pyrazol-4-yl)-7-methoxyquinazolin-6-yl)-3-oxabicyclo[3.1.0]hexane-1-carboxamide]	2.4 nM	1.5 nM	2.2 nM
COc1cc2ncnc(-c3cn(C)nc3-c3ccccc3)c2cc1NC(=O)C(C)N(C)C (stereo not drawn) [Example 220, 2-(dimethylamino)-N-(7-methoxy-4-(1-methyl-3-phenyl-1H-pyrazol-4-yl)quinazolin-6-yl)propanamide]	5 nM	1.7 nM	4.7 nM
CN(C)C12CC(C(=O)Nc3nc4c(-c5cn(C)nc5-c5ccc(F)cc5)ncnc4cc3OC3CC3)(C1)C2 [Example 461, N-{7-cyclopropoxy-4-[3-(4-fluorophenyl)-1-methyl-1H-pyrazol-4-yl]pyrido[3,2-d]pyrimidin-6-yl}-3-(dimethylamino) bicyclo[1.1.1]pentane-1-carboxamide]	12.7 nM	2.9 nM	7.2 nM
COc1cc2ncnc(-c3cn(C)nc3-c3ccccc3)c2nc1NC(=O)C1(OC)CC1 [Example 436, 1-methoxy-N-(7-methoxy-4-(1-methyl-3-phenyl-1H-pyrazol-4-yl)pyrido[3,2-d]pyrimidin-6-yl)cyclopropane-1-carboxamide]	8 nM	1 nM	4.6 nM
COc1cc2ncnc(-c3cn(C)nc3-c3ccccc3)c2nc1O[C@@H](C)c1ncsc1C (single isomer, unassigned) [Example 54, (S)-4-(1-((7-methoxy-4-(1-methyl-3-phenyl-1H-pyrazol-4-yl)pyrido[3,2-d]pyrimidin-6-yl)oxy)ethyl)-5-methylthiazole or (R)-4-(1-((7-methoxy-4-(1-methyl-3-phenyl-1H-pyrazol-4-yl)pyrido[3,2-d]pyrimidin-6-yl)oxy)ethyl)-5-methylthiazole]	10.6 nM	1 nM	1.6 nM
COc1cc2ncnc(-c3cn(C)nc3-c3ccccc3)c2cc1NC(=O)[C@H]1CCN(C)C[C@@H]1F [Example 285, (3R,4R)-3-fluoro-N-(7-methoxy-4-(1-methyl-3-phenyl-1H-pyrazol-4-yl)quinazolin-6-yl)-1-methylpiperidine-4-carboxamide]	1.3 nM	0.8 nM	0.5 nM
